Reference: patent US20130296311A1, “INHIBITORS OF HCV NS5A” (PRESIDIO PHARMACEUTICALS, INC., priority 2010, published 2013)

These molecules were tested on HCV 1b_Huh-Luc/Neo-ET cell line persistently expressing a bicistronic genotype 1b replicon in Huh 7 cells (assay: HCV replicon assay (luciferase readout, 72 h)). Settings: Hepatitis C virus, Huh-7, 72 h, read-out: Inhibition of HCV genotype 1b.
Assay type: cell-based, HCV genotype 1b
Experimental: Biological activity of the compounds of the invention was determined using an HCV replicon assay. The HCV 1b_Huh-Luc/Neo-ET cell line persistently expressing a bicistronic genotype 1b replicon in Huh 7 cells was obtained from ReBLikon GMBH. This cell line was used to test compound inhibition using luciferase enzyme activity readout as a measurement of compound inhibition of replicon levels.
On Day 1 (the day after plating), each compound is added in triplicate to the cells. Plates incubated for 72 h prior to running the luciferase assay. Enzyme activity was measured using a Bright-Glo Kit (cat. number E2620) manufactured by Promega Corporation. The following equation was used to generate a percent control value for each compound.
% Control=(Average Compound Value/Average Control)*100
The EC50 value was determined using GraphPad Prism and the following equation:
Y=Bottom+(Top-Bottom)/(1+10̂((LogIC50−X)*HillSlope))
EC50 values of compounds are determined several times in the replicon assay.
Example compounds of the disclosed invention are illustrated in Tables 1-16 attached as appendices. The tables show inhibitory activity of many of the example compounds with respect to HCV 1b. […] The tables further provide mass spectrometry results for the synthesized example compounds.
For `COC(=O)N[C@H]1CCC[C@@H]1C(=O)N1CCC[C@H]1c1ncc(-c2ccc(C#Cc3ccc4nc([C@@H]5CCCN5C(=O)[C@H]5CCC[C@@H]5NC(=O)OC)[nH]c4c3)cc2)[nH]1` [Compound 1059], the EC50 was 10 to 999 nM. `CC(C)[C@@H](NC(=O)C1CC1)C(=O)N1CCC[C@H]1C(=O)NCc1ccc(C#Cc2cnc([C@@H]3CCCN3C(=O)[C@H](NC(=O)C3CC3)C(C)C)[nH]2)cc1` [Compound 122] showed an EC50 of 1 to 9.9 nM. Work on `COC(=O)N[C@H](C(=O)N1CCSC[C@H]1c1ncc(-c2ccc(C#Cc3ccc4nc([C@@H]5CCCN5C(=O)[C@@H](NC(=O)OC)C(C)C)[nH]c4c3)cc2)[nH]1)C(C)C` [Compound 1062] yielded an EC50 of less than 1 nM. In the case of `COC(=O)N[C@H](C(=O)N1CCC[C@H]1c1ncc(-c2ccc(C#Cc3ccc(-c4cnc([C@@H]5CCCN5C(=O)[C@@H](c5ccccc5)N5CCC(C)(O)CC5)[nH]4)cc3)cc2)[nH]1)C(C)C` [Compound 970], the EC50 is reported as less than 1 nM. `O=C(N[C@@H](C(=O)N1CCC[C@H]1c1ncc(C#Cc2ccc(-c3ccc(-c4cnc([C@@H]5CCCN5C(=O)[C@H](NC(=O)N5CC[C@@H](O)C5)c5ccccc5)[nH]4)cc3)cc2)[nH]1)c1ccccc1)N1CC[C@@H](O)C1` [Compound 763] was tested, and the EC50 was less than 1 nM. Molecule `CCN(CC)[C@@H](C(=O)N1CCC[C@H]1c1ncc(-c2ccc(C#Cc3ccc(-c4cnc([C@@H]5CCCN5C(=O)[C@H](NS(C)(=O)=O)c5ccccc5)[nH]4)cc3)cc2)[nH]1)c1ccccc1` [Compound 229] has an EC50 of less than 1 nM. `COC(=O)N[C@H](C(=O)N1CCC[C@H]1c1ncc(-c2ccc(C#Cc3ccc4nc([C@@H]5CCCN5C(=O)[C@@H](NC(=O)OC)[C@H](C)O)[nH]c4c3)cc2)[nH]1)[C@H](C)O` [Compound 1031] was tested, and the EC50 was less than 1 nM. `O=C([C@H](O)c1ccccc1)N1CCC[C@H]1c1ncc(C#Cc2ccc(-c3cnc([C@@H]4CCCN4C(=O)[C@H](O)c4ccccc4)[nH]3)cc2)[nH]1` [Compound 112] gave an EC50 of less than 1 nM. For `CN(C)[C@@H](C(=O)N1CCC[C@H]1c1ncc(-c2ccc(C#Cc3cnc([C@@H]4CCCN4C(=O)[C@H](NC(=O)C4CC4)c4ccccc4)[nH]3)cc2)[nH]1)c1ccccc1` [Compound 131], the EC50 was less than 1 nM. In the case of `COC(=O)N[C@H](C(=O)N[C@@H](C)c1ncc(-c2ccc(C#Cc3ccc(-c4cnc([C@H](C)NC(=O)[C@@H](NC(=O)OC)[C@@H](C)OC)[nH]4)cc3)cc2)[nH]1)[C@@H](C)OC` [Compound 952], the EC50 is reported as 1 to 9.9 nM. `COC(=O)N[C@H](C(=O)N1CCC[C@H]1c1ncc(C#Cc2ccc(-c3ccc4nc([C@@H]5CCCN5C(=O)[C@@H](NC(=O)OC)C(C)C)[nH]c4c3)nc2)[nH]1)C(C)C` [Compound 1086] gave an EC50 of less than 1 nM. Work on `CC(C)[C@@H](NC(=O)C1CC1)C(=O)N1CCC[C@H]1c1ncc(C#Cc2ccc(C#Cc3cnc([C@@H]4CCCN4C(=O)[C@H](NC(=O)C4CC4)C(C)C)[nH]3)cc2)[nH]1` [Compound 302] yielded an EC50 greater than 1000 nM. Molecule `COC[C@H]1CCCN1C(=O)N[C@@H](C(=O)N1CCC[C@H]1c1ncc(-c2ccc(C#Cc3ccc(-c4cnc([C@@H]5CCCN5C(=O)[C@H](NC(=O)OC)c5ccccc5)[nH]4)cc3)cc2)[nH]1)c1ccccc1` [Compound 259] has an EC50 of less than 1 nM. `COC(=O)N[C@H](C(=O)N1CCC[C@H]1c1nc2c([nH]1)-c1ccc(C#Cc3ccc(-c4cnc([C@@H]5CCCN5C(=O)[C@@H](NC(=O)OC)C5CCOCC5)[nH]4)cc3)cc1CCC2)C(C)C` [Compound 1097] gave an EC50 of less than 1 nM. Work on `COC(=O)N[C@@H](C(=O)N1CCC[C@H]1c1ncc(-c2ccc(C#Cc3ccc(-c4cnc([C@@H]5CCCN5C(=O)[C@H](NC(=O)[C@H]5CCCN5)c5ccccc5)[nH]4)cc3)cc2)[nH]1)c1ccccc1` [Compound 207] yielded an EC50 of less than 1 nM. Work on `COC(=O)N[C@@H](C(=O)N1CCC[C@H]1c1ncc(-c2ccc(C#Cc3ccc(C(=O)NC[C@@H]4CCCN4C(=O)[C@H](NC(=O)N4CCN(C)CC4)c4ccccc4)cc3)cc2)[nH]1)c1ccccc1` [Compound 236] yielded an EC50 of less than 1 nM. For `COC(=O)N[C@@H](CC(=O)O)C(=O)N1CCC[C@H]1c1ncc(-c2ccc(C#Cc3ccc4nc([C@@H]5CCCN5C(=O)[C@H](CC(=O)O)NC(=O)OC)[nH]c4c3)cc2)[nH]1` [Compound 1061], the EC50 was 10 to 999 nM. `COC(=O)N[C@H](C(=O)N[C@@H](C)c1ncc(-c2ccc(C#Cc3ccc(-c4cnc([C@@H]5CCCN5C(=O)[C@@H](NC(=O)OC)[C@@H](C)O)[nH]4)cc3)cc2)[nH]1)[C@@H](C)O` [Compound 291] was tested, and the EC50 was less than 1 nM. For `CC(C)(C)OC(=O)N[C@@H](C(=O)N1CCC[C@H]1c1ncc(C#Cc2ccc(-c3cnc([C@@H]4CCCN4C(=O)[C@H](NC(=O)OC(C)(C)C)c4ccccc4)[nH]3)cc2)[nH]1)c1ccccc1` [Compound 99], the EC50 was less than 1 nM. `COC(=O)N[C@H](C(=O)N1CCC[C@H]1c1ncc(-c2ccc(C#Cc3ccc(-c4cnc([C@@H]5CCCN5C(=O)[C@@H](c5ccccc5)N5CCC(O)CC5)[nH]4)cc3)cc2)[nH]1)C(C)C` [Compound 956] was tested, and the EC50 was less than 1 nM. `COC(=O)N[C@@H](C(=O)N[C@@H](C)c1ncc(-c2ccc(C#Cc3ccc(-c4cnc([C@H](C)NC(=O)[C@H](NC(=O)OC)C(C)C)[nH]4)cc3)cc2)[nH]1)C(C)C` [Compound 950] gave an EC50 of less than 1 nM. `O=C(N[C@@H](C(=O)N1CCC[C@H]1c1nc(-c2ccc3cc(C#Cc4cnc([C@@H]5CCCN5C(=O)[C@H](NC(=O)N5CCOCC5)c5ccccc5)[nH]4)ccc3c2)c[nH]1)c1ccccc1)N1CCOCC1` [Compound 808] gave an EC50 of less than 1 nM. Molecule `CC(C)[C@@H](NC(=O)N1CCC(O)CC1)C(=O)N1CCC[C@H]1c1ncc(-c2ccc(C#Cc3ccc(-c4cnc([C@@H]5CCCN5C(=O)[C@H](NC(=O)N5CCC(O)CC5)C(C)C)[nH]4)cc3)cc2)[nH]1` [Compound 959] has an EC50 of less than 1 nM. In the case of `O=C(N[C@@H](C(=O)N1CCC[C@H]1c1ncc(-c2ccc(C#Cc3ccc(-c4cnc([C@@H]5CCCN5C(=O)[C@H](NC(=O)OC5CCOCC5)c5ccccc5)[nH]4)c(F)c3)cc2)[nH]1)c1ccccc1)OC1CCOCC1` [Compound 1014], the EC50 is reported as less than 1 nM. `COC(=O)N[C@@H](Cc1ccccc1)C(=O)N1CCC[C@H]1c1ncc(-c2ccc(C#Cc3ccc4nc([C@@H]5CCCN5C(=O)[C@H](Cc5ccccc5)NC(=O)OC)[nH]c4c3)cc2)[nH]1` [Compound 1045] was tested, and the EC50 was less than 1 nM. Molecule `COC(=O)N[C@@H](C(=O)N[C@@H](C)c1ncc(-c2ccc(C#Cc3ccc(-c4cnc([C@@H]5CCCN5C(=O)[C@H](NC(=O)OC)C(C)C)[nH]4)cc3)cc2)[nH]1)C(C)C` [Compound 290] has an EC50 greater than 1000 nM. For `COC(=O)N[C@H](C(=O)N1CCC[C@H]1c1ncc(-c2ccc(C#Cc3ccc(-c4cnc([C@@H]5CCCN5C(=O)[C@H](C(C)C)N(C)C)[nH]4)cc3)cc2)[nH]1)C(C)C` [Compound 953], the EC50 was 1 to 9.9 nM. In the case of `O=C(N[C@@H](C(=O)N1CCC[C@H]1c1ncc(-c2ccc(C#Cc3ccc(-c4cnc([C@@H]5CCCN5C(=O)[C@@H](c5ccccc5)N5CCOCC5)[nH]4)cc3)cc2)[nH]1)c1ccccc1)C1CC1` [Compound 237], the EC50 is reported as less than 1 nM. For `COC(=O)N[C@H](C(=O)N1CCC[C@H]1c1ncc(-c2ccc(C#Cc3ccc4nc([C@@H]5CCCN5C(=O)[C@H](C(C)C)N(C)C)[nH]c4c3)cc2)[nH]1)C(C)C` [Compound 1021], the EC50 was less than 1 nM. In the case of `COC(=O)N[C@H](C(=O)N1CCC[C@H]1c1nc2ccc3cc(C#Cc4ccc(-c5cnc([C@@H]6CCCN6C(=O)[C@@H](NC(=O)OC)C6CCOCC6)[nH]5)cc4)ccc3c2[nH]1)C(C)C` [Compound 1092], the EC50 is reported as less than 1 nM.

Same assay, conditions: Hepatitis C virus, Huh-7, read-out: Inhibition of HCV genotype 1b
`CC[C@H](C)[C@H](NC(=O)OC)C(=O)N1CCC[C@H]1c1ncc(-c2ccc(C#Cc3ccc4nc([C@@H]5CCCN5C(=O)[C@@H](NC(=O)OC)[C@@H](C)CC)[nH]c4n3)cc2)[nH]1` [Compound 1251] was tested, and the EC50 was less than 1 nM. For `COC(=O)N[C@H](C(=O)N1CCC[C@H]1c1nc(C#N)c(C#Cc2ccc3cc(-c4cnc([C@@H]5CCCN5C(=O)[C@@H](NC(=O)OC)[C@@H](C)OC)[nH]4)ccc3c2)[nH]1)C(C)C` [Compound 1268], the EC50 was less than 1 nM. `CC[C@H](C)[C@H](NC(=O)OC)C(=O)N1CCC[C@H]1c1ncc(-c2ccc(C#Cc3ccc4nc([C@@H]5CCCN5C(=O)[C@@H](NC(=O)OC)[C@@H](C)OC)[nH]c4c3)cc2)[nH]1` [Compound 1248] showed an EC50 of less than 1 nM. For `COC(=O)N[C@H](C(=O)N1CCC[C@H]1c1nc2ccc(C#Cc3ccc4c(ccc5nc([C@@H]6CCCN6C(=O)[C@@H](NC(=O)OC)[C@@H](C)OC)[nH]c54)c3)cc2[nH]1)C(C)C` [Compound 1286], the EC50 was less than 1 nM. `COC(=O)N[C@H](C(=O)N1CCC[C@H]1CNC(=O)c1ccc(C#Cc2ccc3nc([C@@H]4CCCN4C(=O)[C@@H](NC(=O)OC)C(C)C)[nH]c3c2)cn1)C(C)C` [Compound 1240] showed an EC50 of 10 to 999 nM. Molecule `CC[C@H](C)[C@H](NC(=O)OC)C(=O)N1CCC[C@H]1c1ncc(-c2ccc(C#Cc3ccc(-c4cnc([C@@H]5CCCN5C(=O)[C@@H](NC(=O)OC)[C@@H](C)CC)[nH]4)cc3)cc2)[nH]1` [Compound 1216] has an EC50 of less than 1 nM. `COC(=O)N[C@@H](C(=O)N1CCC[C@H]1c1ncc(-c2ccc(C#Cc3ccc(-c4cnc([C@@H]5CCCN5C(=O)[C@H](NC(=O)OC)c5ccccc5)[nH]4)cc3C#N)cc2)[nH]1)c1ccccc1` [Compound 1203] showed an EC50 of less than 1 nM. `COC(=O)N[C@H](C(=O)N1CCC[C@H]1c1ncc(-c2ccc(C#Cc3ccc4nc([C@@H]5CCCN5C(=O)[C@@H](NC(=O)OC)[C@@H](C)OC)[nH]c4n3)cc2)[nH]1)[C@@H](C)OC` [Compound 1252] gave an EC50 of less than 1 nM. For `COC(=O)N[C@H](C(=O)N1CCC[C@H]1c1ncc(-c2ccc(C#Cc3ccc(-c4cnc([C@@H]5CCCN5C(=O)[C@H](NC(=O)OC)c5ccsc5)[nH]4)cc3)cc2)[nH]1)[C@@H](C)OC` [Compound 1212], the EC50 was less than 1 nM.
